Here are results for seven compounds from patent publication US6569878B1, “Substituted 4-amino-thiazol-2-yl compounds as cyclin-dependent kinase inhibitors” (Agouron Pharmaceuticals Inc., priority 1997, dated 2003).

By IC50 is commonly meant the concentration needed to halve the response being measured. Usually IC90 stands for the point of the concentration-response curve where the effect stands at 90%.

Assay [1] relates to HCT116. In words: Inhibition of cell growth, MTT assay, HCT116. Type of assay: cell-based, human. Conditions: for IC50 / IC90: Homo sapiens, HCT-116. The protocol:
(§1) The water-insoluble purple formazan product was then detected spectrophotometrically. […] Plates were incubated for four hours before addition of inhibitor compounds. Different concentrations of inhibitor compounds were added in 0.5% (v/v) dimethylsulfoxide (15 μL/well), and cells were incubated at 37° C. (5% CO2) for four to six days (depending on cell type). At the end of the incubation, MTT was added to a final concentration of 0.2 mg/mL, and cells were incubated for 4 hours more at 37° C. After centrifugation of the plates and removal of medium, the absorbance of the formazan (solubilized in dimethylsulfoxide) was measured at 540 nm.
(In general: Tetrazolium assays rely on reduction of a dye to a coloured formazan, in cell work by metabolically active cells.)

The target of assay [2] is T1, CDK2/cyclin A (Homo sapiens, UniProt P24941).
T1 construct: made in house; host or cells: CDK2: insect cells (baculovirus); cyclin A: E. coli, then limited proteolysis
In words: Inhibition of CDK2/cyclin A retinoblastoma kinase activity. The note with it: read-out: Ki CDK 2/A. Type of assay: biochemical. The protocol:
Cyclin-dependent kinase activity was measured by quantifying the enzyme-catalyzed, time-dependent incorporation of radioactive phosphate from [^32P]ATP or [^33P]ATP into a protein substrate. Unless noted otherwise, assays were performed in 96-well plates in a total volume of 50 μL, in the presence of 10 mM HEPES (N-[2-hydroxyethyl]piperazine-N′-[2-ethanesulfonic acid]) (pH 7.4), 10 mM MgCl2, 25 μM adenosine triphosphate (ATP), 1 mg/mL ovalbumin, 5 μg/mL leupeptin, 1 mM dithiothreitol, 10 mM β-glycerophosphate, 0.1 mM sodium vanadate, 1 mM sodium fluoride, 2.5 mM ethylene glycol-bis(β-aminoethyl ether)-N,N,N′N′-tetraacetic acid (EGTA), 2% (v/v) dimethylsulfoxide, and 0.03-0.4 μCi [^32/33P]ATP per reaction. Reactions were initiated with enzyme, incubated at 30° C., and terminated after 20 minutes by the addition of ethylenediaminetetraacetic acid (EDTA) to 250 mM. The phosphorylated substrate was then captured on a nitrocellulose or phosphocellulose membrane using a 96-well filtration manifold, and unincorporated radioactivity was removed by repeated washing with 0.85% phosphoric acid. Radioactivity was quantified by exposing the dried membranes to a phosphorimager.
Apparent Ki values were measured by assaying enzyme activity in the presence of different inhibitor compound concentrations and subtracting the background radioactivity measured in the absence of enzyme. The kinetic parameters (kcat, Km for ATP) were measured for each enzyme under the usual assay conditions by determining the dependence of initial rates on ATP concentration. Inhibition data were fit to an equation for competitive inhibition using Kaleidagraph (Synergy Software), or were fit to an equation for competitive tight-binding inhibition using the software KineTic (BioKin, Ltd.).
CDK2 was purified using published methodology (Rosenblatt et al., “Purification and Crystallization of Human Cyclin-dependent Kinase 2,” J. Mol. Biol., vol. 230, 1993, pp. 1317-1319) from insect cells that had been infected with a baculovirus expression vector. […] Purified, proteolyzed cyclin A was included in the assay at a three- to five-fold molar excess to CDK2. Alternatively, a complex of CDK2 and proteolyzed cyclin A was prepared and purified by gel filtration. The substrate for this assay was the same Rb substrate fragment used for the CDK4 assays, and the methodology of the CDK2/cyclin A and the CDK4/cyclin D3 assays was essentially the same, except that CDK2 was present at 150 nM or 5 nM. Ki values were measured as described above.

Assay [3] relates to Saos-2. In words: Inhibition of cell growth, MTT assay, Saos-2. Type of assay: cell-based. The note with it: Saos-2, MTT assay; for IC50 / IC90: Homo sapiens; for % inhibition of growth in parentheses after >25: concentration not given. On the procedure: as §1
Assay [4] relates to U2-OS. The assay is described as follows: Inhibition of cell growth, MTT assay, U2-OS. It is filed as cell-based. Conditions: for IC50 / IC90: Homo sapiens, U2OS; for % inhibition of growth in parentheses after >25: concentration not given. On the procedure:
as §1

Assay [5] addresses T2, complex of human CDK4 and cyclin D3 (Homo sapiens, UniProt P11802).
T2 construct: made in house; host or cells: insect cells, co-infected with baculovirus
In words: Inhibition of CDK4/cyclin D retinoblastoma kinase activity (D-type cyclin is D3). It is filed as biochemical. Conditions: superscript a: D-type cyclin is D3; apparent Ki; read-out: Ki CDK 4/D. Summed up:
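Apparent Ki derived by fitting background-corrected activity to competitive (or, for tight binders, competitive tight-binding) equations with measured ATP Km. Rb phosphorylation by radiolabelled ATP was measured at 30°C, 20 min standard or 60 min at 5 nM complex for tight binders, via nitrocellulose capture and phosphorimager.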

T2 sequence (P11802 whole entry): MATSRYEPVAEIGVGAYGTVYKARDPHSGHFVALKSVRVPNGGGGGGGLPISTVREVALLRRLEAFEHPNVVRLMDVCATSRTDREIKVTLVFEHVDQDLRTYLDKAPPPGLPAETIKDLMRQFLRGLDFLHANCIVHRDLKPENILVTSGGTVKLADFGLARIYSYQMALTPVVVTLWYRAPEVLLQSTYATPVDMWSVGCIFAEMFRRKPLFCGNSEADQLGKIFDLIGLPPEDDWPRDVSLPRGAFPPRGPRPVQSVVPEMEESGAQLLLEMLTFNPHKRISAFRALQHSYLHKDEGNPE
T2 sequence (P30281 whole entry partner): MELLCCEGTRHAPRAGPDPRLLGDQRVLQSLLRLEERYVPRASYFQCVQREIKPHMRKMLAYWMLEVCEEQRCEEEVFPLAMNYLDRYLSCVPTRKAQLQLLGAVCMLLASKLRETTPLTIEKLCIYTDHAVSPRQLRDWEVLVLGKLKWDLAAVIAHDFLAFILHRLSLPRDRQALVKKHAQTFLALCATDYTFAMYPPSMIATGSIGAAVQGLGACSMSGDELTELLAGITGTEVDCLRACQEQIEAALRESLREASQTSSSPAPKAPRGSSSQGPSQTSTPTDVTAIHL

Turning to `Cc1ccc(C(=O)c2sc(Nc3cccnc3)nc2N)c(C)c1` [C(21), [4-Amino-2-(pyridin-3-ylamino)-thiazol-5-yl]-(2,4-dimethyl-phenyl)-methanone], the values for the half-maximal inhibitory concentration (IC50) in assay [1], in assay [3] and in assay [4] were 9 µM, 13 µM and 22 µM, respectively. Besides, the IC90 in assay [1] was 22 µM; in assay [3], 23 µM; in assay [4], above 25 µM. The Ki in assay [2] was determined as 0.48 µM; in assay [5], 0.117 µM. The “% inhibition of growth in parentheses after >25” value (“% inhibition of growth” below) in assay [4] amounted to 57%.
`Cc1ccc(C(=O)c2sc(Nc3ccc(S(N)(=O)=O)cc3)nc2N)c(C)c1` [C(35), 4-[4-Amino-5-(2,4-dimethyl-benzoyl)-thiazol-2-ylamino]-benzenesulfonamide]: the concentration for half-maximal inhibition (IC50) in assay [1] stood at 9 µM; in assay [3] it was 8 µM; in assay [4] it was 12 µM. In addition, the figures for the 90% effect concentration (IC90) in assay [1], in assay [3] and in assay [4] were 19 µM, 20 µM and 22 µM, respectively. Moreover, the values for the Ki in assay [2] and in assay [5] were 0.023 µM and 0.011 µM, respectively.
As for `Nc1nc(Nc2ccc(S(N)(=O)=O)cc2)sc1C(=O)c1c(Cl)cc(C(F)(F)F)cc1Cl` [C(38), 4-[4-Amino-5-(2,6-dichloro-4-trifluoromethyl-benzoyl)-thiazol-2-ylamino]-benzenesulfonamide], the IC50 in assay [1] is 4.3 µM; in assay [3] it was 3 µM; in assay [4], 11 µM. The IC90 in assay [1] is 19 µM; in assay [3], above 25 µM; in assay [4], above 25 µM. The Ki in assay [2] came out at 0.039 µM; in assay [5], 0.025 µM. Moreover, the “% inhibition of growth” value in assay [3] is 80%; in assay [4], 87%.
On to `Cc1ncsc1C(=O)c1sc(Nc2ccc(S(N)(=O)=O)cc2)nc1N` [C(47), 4-[4-Amino-5-(4-methyl-thiazole-5-carbonyl)-thiazol-2-ylamino]-benzenesulfonamide], for which the 50% inhibitory concentration (IC50) was 4.2 µM in assay [1], 2.5 µM in assay [3] and 10 µM in assay [4]. In addition, the concentration for an effect of 90% (IC90) in assay [1] came out at 7.8 µM; in assay [3], 5.1 µM; in assay [4], 20 µM. Also, the Ki came to 0.026 µM in assay [2] and 0.03 µM in assay [5].
In the case of `Nc1nc(Nc2ccc3nc[nH]c3c2)sc1C(=O)c1c(Cl)cccc1Cl` [C(52), [4-Amino-2-(1H-benzoimidazol-6-ylamino)-thiazol-5-yl]-(2,6-dichloro-phenyl)-methanone], the IC50 in assay [1] turned out to be 8.5 µM; in assay [3] it was 9 µM; in assay [4], 15 µM. The IC90 in assay [1] turned out to be 17 µM; in assay [3], 22 µM; in assay [4], 23 µM. For the same compound, the Ki in assay [2] was 0.105 µM; in assay [5], 0.011 µM.
For the compound `Nc1nc(Nc2ccc(N3CCOCC3)cc2)sc1C(=O)c1c(Cl)cncc1Cl` [C(69), {4-Amino-2-[4-morpholin-4-yl-phenylamino]-thiazol-5-yl}-(3,5-dichloro-pyridin-4-yl)-methanone], the values for the IC50 in assay [1], in assay [3] and in assay [4] were 5 µM, 12 µM and 14 µM, respectively. Further, the results for the 90% effect concentration (IC90) in assay [1], in assay [3] and in assay [4] were 15 µM, at least 26 µM and at least 26 µM, respectively. Further, the Ki in assay [2] is 0.638 µM; in assay [5], 0.02 µM.
As for `CC(=O)Nc1ccc(Cl)c(C(=O)c2sc(Nc3ccc4nc[nH]c4c3)nc2N)c1Cl` [C(82), N-{3-[4-Amino-2-(1H-benzoimidazol-6-ylamino)-thiazole-5-carbonyl]-2,4-dichloro-phenyl}-acetamide], the IC50 in assay [1], in assay [3] and in assay [4] was above 25 µM in each case. Further, the “% inhibition of growth” value in assay [1] (concentration not given) is recorded as 1%; in assay [3], 15%; in assay [4] it was 1%. In addition, the results for the Ki in assay [2] and in assay [5] were 0.467 µM and 0.0442 µM, respectively.
